Measured values reported in patent US8183293B2, “Phenyl acetic acid derivatives” (Amgen Inc., priority 2007, dated 2012).
“Also recorded” adds a separate entry of the source. Like-named read-outs stand apart in the source and are kept apart here.

Key:
[1] = biological target: T1, human CRTH2 (Homo sapiens, UniProt Q9Y5Y4); assay: Human CRTH2 binding assay (3H-PGD2, 293(124) cells)
T1 construct: Full-length human CRTH2 cDNA was generated by polymerase chain reaction (PCR); expressed in transfected cells; host or cells: 293 cells stably transfected with pHLT124 (pCDNA3.1(+)), named 293(124)
T1 sequence (Q9Y5Y4 1-395): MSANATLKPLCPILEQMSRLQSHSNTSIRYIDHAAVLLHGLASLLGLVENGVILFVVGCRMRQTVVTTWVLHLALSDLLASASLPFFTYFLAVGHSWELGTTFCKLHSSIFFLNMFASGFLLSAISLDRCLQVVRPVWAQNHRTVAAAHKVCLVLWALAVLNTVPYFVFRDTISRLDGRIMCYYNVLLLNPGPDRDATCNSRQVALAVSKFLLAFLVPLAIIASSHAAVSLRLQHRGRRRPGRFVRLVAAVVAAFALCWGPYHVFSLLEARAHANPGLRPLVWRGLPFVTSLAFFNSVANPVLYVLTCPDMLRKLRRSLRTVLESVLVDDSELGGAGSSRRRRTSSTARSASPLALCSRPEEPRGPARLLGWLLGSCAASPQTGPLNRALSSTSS
Procedure: Full-length human CRTH2 cDNA was generated by polymerase chain reaction (PCR) using human genomic DNA as template and subsequently cloned into pCDNA3.1(+) (Invitrogen), generating a CRTH2 expression plasmid pHLT124. The plasmid was transfected into 293 cells, […], using LipofectAMINE™ reagents (Gibco/BRL). G418 ([…]) was added to the culture 48 h after transfection and cells were maintained under selection for 3 weeks to ensure that all surviving cells stably expressed CRTH2. These cells are labeled as 293(124) hereafter.
^3H-PGD2 binding assay was performed using 293(124) cells. […] Each assay contained 25,000 cells, appropriate amount of test compound when necessary and a mixture of 1 nM ^3H-PGD2 (Amersham Pharmacia Biotech) and 30 nM of unlabeled PGD2 (Cayman Chemicals) in […] final volume. The cell mixture was incubated at room temperature for 2.5 h with shaking and the cells were separated from free ^3H-PGD2 and transferred onto a filter plate using a cell harvester. Radioactivity bound to the cells was measured on a liquid scintillation counter. Nonspecific binding was determined in the presence of […] of unlabeled PGD2.

[2] = biological target: T2, DP (Homo sapiens, UniProt Q13258); assay: DP activity (IC50); format: binding
T2 sequence (Q13258 1-359): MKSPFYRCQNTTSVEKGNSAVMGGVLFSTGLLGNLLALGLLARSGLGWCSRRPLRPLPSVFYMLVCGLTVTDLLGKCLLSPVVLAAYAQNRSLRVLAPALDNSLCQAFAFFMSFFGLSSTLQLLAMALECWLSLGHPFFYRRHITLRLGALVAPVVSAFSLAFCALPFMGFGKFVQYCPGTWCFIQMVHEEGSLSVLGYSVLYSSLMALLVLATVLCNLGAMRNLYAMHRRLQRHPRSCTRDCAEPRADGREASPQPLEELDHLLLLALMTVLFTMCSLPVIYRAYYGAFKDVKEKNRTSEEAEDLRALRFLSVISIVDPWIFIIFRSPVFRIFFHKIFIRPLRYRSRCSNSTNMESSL

[3] = system: antigen-induced airway response; assay: Sheep airway response model of asthma; format: in vivo
Excerpt: (§1) The sheep and guinea pig models employed herein are disclosed in publications such as Abraham, W. M., Sheep Models of Allergic Bronchoconstriction)(in Allergy and Allergic Disease 2:1045 1977); Isenberg-Feig, H et al., Animal Models of Allergic Asthma (in Current Allergy and Asthma Reports 2003, 3:70-78); Abraham, W. M., et al. Am J Respir Crit. Care Med vol. 159. pp. 1205-1214, 1999; Abraham, W. M. et al, Am J Respir Crit. Care Med vol. 169. pp. 97-104, 2004; and Jones, T. R. et al Can. J. Physiol. Pharmacol. 73: 191-201 1995.

[4] = In vitro covalent binding to protein, human liver microsomes; format: in vitro ADME; conditions: in the presence of NADPH cofactor
Procedure: (§2) The propensity of AMG 009 metabolism to generate reactive metabolites was conducted in studies to evaluate in vitro covalent binding to protein by standardized methods (Day, et al., J. Pharmacol. Toxicol. Methods., 52, 278-285 (2005)).

[5] = In vitro covalent binding to protein, rat liver microsomes; format: in vitro ADME; conditions: in the presence of NADPH cofactor
Procedure: as §2

[6] = system: PGD2-induced airway constriction; assay: Guinea pig model of airway constriction; format: in vivo; conditions: animals pretreated with aerosolized PGD2 at doses as high as 0.625 mg/mL, FIG. 5
Excerpt: as §1, with “FIGS. 6A and 6B are graphs comparing the efficacy of AMG 009 (FIG. 6A) and Example Compound 14 (FIG. 6A) in the Guinea Pig Model of airway constriction. The” for “The”

[7] = Hygroscopicity of polymorph; format: physicochemical
[8] = buffer, read-out: CRTH2 IC50 (nM) Buffer
[9] = plasma, read-out: CRTH2 IC50 (nM) Plasma
[10] = buffer, read-out: DP IC50 (nM) Buffer
[11] = plasma, read-out: DP IC50 (nM) Plasma
[12] = whole blood, read-out: CRTH2 IC50 (nM) whole blood
[13] = whole blood, read-out: DP IC50 (nM) whole blood

SMILES | IC50 [1, 8] [nM] | IC50 [1, 9] [nM] | IC50 [2, 10] [nM] | IC50 [2, 11] [nM] | further results
CC(C)(C)NC(=O)c1ccc(Oc2cc(F)c(CC(=O)O)cc2Cl)c(NS(=O)(=O)c2ccc(OC(F)(F)C(F)F)cc2Cl)c1 | 4.6 | 10.9 | 5.9 | 52.5 | –
Cc1ccc(S(=O)(=O)Nc2cc(C(=O)NC(C)(C)C)ccc2Oc2cc(F)c(CC(=O)O)cc2Cl)c(Cl)c1 | 3.3 | 6.1 | 5.6 | 17.2 | –
CC(C)(C)NC(=O)c1ccc(Oc2cc(F)c(CC(=O)O)cc2Cl)c(NS(=O)(=O)c2ccc(C(F)(F)F)cc2Cl)c1 | 3.5 | 8.1 | 12.6 | 43 | IC50 [1, 12]: 1.1 nM; IC50 [2, 13]: 26.6 nM
CC1(NC(=O)c2ccc(Oc3cc(F)c(CC(=O)O)cc3Cl)c(NS(=O)(=O)c3ccc(C4CC4)cc3Cl)c2)CCC1 | 3.9 | 7.6 | 4.4 | 25.7 | –
O=C(O)Cc1cc(Cl)c(Oc2ccc(C(=O)NC3CCC3)cc2NS(=O)(=O)c2ccc(C3CC3)cc2Cl)cc1F | 3.3 | 7.9 | 4.6 | 18 | IC50 [1, 12]: 0.5 nM; IC50 [2, 13]: 0.6 nM
CC(C)(C)NC(=O)c1ccc(Oc2cc(F)c(CC(=O)O)cc2Cl)c(NS(=O)(=O)c2ccc(OC(F)(F)F)cc2Cl)c1 | 9.3 | 19.4 | 14.5 | 37.8 | IC50 [1, 12]: 2 nM; IC50 [2, 13]: 17.3 nM
CC1(NC(=O)c2ccc(Oc3cc(F)c(CC(=O)O)cc3Cl)c(NS(=O)(=O)c3ccc(C(F)(F)F)cc3Cl)c2)CCC1 | 8.1 | 18.4 | 15.1 | 41.9 | –
CC(C)(C)NC(=O)c1ccc(Oc2cc(F)c(CC(=O)O)cc2F)c(NS(=O)(=O)c2ccc(C3CC3)cc2Cl)c1 | 3 | 10 | 5 | 39 | –
CC1(NC(=O)c2ccc(Oc3cc(F)c(CC(=O)O)cc3Cl)c(NS(=O)(=O)c3ccc(OC(F)(F)F)cc3Cl)c2)CCC1 | 6.2 | 15.7 | 10.7 | 31.9 | –
CCC(C)(C)NC(=O)c1ccc(Oc2cc(F)c(CC(=O)O)cc2Cl)c(NS(=O)(=O)c2ccc(C(F)(F)F)cc2Cl)c1 | 10 | 35.8 | 15.6 | 51.6 | –
Cc1ccc(S(=O)(=O)Nc2cc(C(=O)NC3CCC3)ccc2Oc2cc(F)c(CC(=O)O)cc2Cl)c(Cl)c1 | 1.3 | 7 | 2.2 | 22.9 | –
CC(C)(C)NC(=O)c1ccc(Oc2cc(F)c(CC(=O)O)cc2Cl)c(NS(=O)(=O)c2ccc(Cl)cc2Cl)c1 | 5 | 13 | 18 | 79 | –
CCCCNC(=O)c1ccc(Oc2ccc(CC(=O)O)cc2OC)c(NS(=O)(=O)c2ccc(Cl)cc2Cl)c1 [AMG 009] | – | – | – | – | antigen-induced late airway response ([3]; 7.5 mg/kg (multi-dose), FIG. 3A): inhibits; antigen-induced development of airway hyperreactivity to carbochol ([3]; 7.5 mg/kg (multi-dose), FIG. 3B): inhibits; antigen-induced late airway response ([3]; 7.5 mg/kg (single dose), FIG. 1A): inhibits; antigen-induced development of airway hyperreactivity to carbochol ([3]; 7.5 mg/kg (single dose), FIG. 1B): inhibits; antigen-induced late airway response ([3]; 15 mg/kg (single dose), FIG. 2A): inhibits; antigen-induced development of airway hyperreactivity to carbochol ([3]; 15 mg/kg (single dose), FIG. 2B): inhibits; allergen-induced recruitment of inflammatory cells to the lung (BAL) ([3]; sheep airway response model): blocked; also recorded: effective in blocking; antigen-induced development of airway hyper-reactivity (AHR) to carbachol ([3]; sheep airway response model): blocks; antigen-induced late airway response (LAR) ([3]; sheep airway response model): inhibits; covalent binding of radioactive equivalents to protein [4]: ~50 pmol equivalent/mg protein; covalent binding of radioactive equivalents to protein [5]: ~50 pmol equivalent/mg protein
CC(C)(C)NC(=O)c1ccc(Oc2cc(F)c(CC(=O)O)cc2Cl)c(NS(=O)(=O)c2ccc(C3CC3)cc2Cl)c1 [Example Compound 14, 2-(4-(4-(tert-butylcarbamoyl)-2-(2-chloro-4-cyclopropylphenylsulfonamido)phenoxy)-5-chloro-2-fluorophenyl)acetic acid] | – | – | – | – | response in Guinea Pig Model [6]: dose-dependent response
CC(C)(C)NC(=O)c1ccc(Oc2cc(F)c(CC(=O)O)cc2Cl)c(NS(=O)(=O)c2ccc(C3CC3)cc2Cl)c1 [Form II, 2-(4-(4-(tert-butylcarbamoyl)-2-(2-chloro-4-cyclopropylphenylsulfonamido)phenoxy)-5-chloro-2-fluorophenyl)acetic acid] | – | – | – | – | hygroscopicity [7]: non hygroscopic
CC(C)(C)NC(=O)c1ccc(Oc2cc(F)c(CC(=O)O)cc2Cl)c(NS(=O)(=O)c2ccc(C3CC3)cc2Cl)c1 [drawing 69] | 3 | 8 | 3 | 26 | IC50 [1, 12]: 0.2 nM; IC50 [2, 13]: 1 nM

Second part, led by results:

IC50 [1, 8] [nM] | IC50 [1, 9] [nM] | IC50 [2, 10] [nM] | IC50 [2, 11] [nM] | SMILES | further results
3.2 | 12.1 | 2.8 | 25.6 | Cc1ccc(S(=O)(=O)Nc2cc(C(=O)NC3(C)CCC3)ccc2Oc2cc(F)c(CC(=O)O)cc2Cl)c(Cl)c1 | –
4.9 | 10.9 | 3.9 | 21.8 | CCC(C)(C)NC(=O)c1ccc(Oc2cc(F)c(CC(=O)O)cc2Cl)c(NS(=O)(=O)c2ccc(C)cc2Cl)c1 | IC50 [2, 13]: 18.3 nM
2.2 | 71 | 12 | – | CCNC(=O)c1ccc(Oc2ccc(CC(=O)O)cc2Cl)c(NS(=O)(=O)c2ccc(Cl)cc2Cl)c1 [reference compound] | –
2.7 | 16.7 | – | – | CCNC(=O)c1ccc(Oc2ccc(CC(=O)O)cc2Cl)c(NS(=O)(=O)c2ccc(OC)cc2)c1 [reference compound] | –
2.3 | 26 | – | – | CCNC(=O)c1ccc(Oc2ccc(CC(=O)O)cc2Cl)c(NS(=O)(=O)c2ccc(C)cc2)c1 [reference compound] | –
4 | 92 | 120 | 8420 | CCNC(=O)c1ccc(Oc2ccc(CC(=O)O)cc2)c(NS(=O)(=O)c2ccc(Cl)cc2Cl)c1 [reference compound] | –
– | – | 9.1 | 100 | CCCCNC(=O)c1ccc(Oc2ccc(CC(=O)O)cc2Cl)c(NS(=O)(=O)c2ccc(Cl)cc2)c1 [reference compound] | –
1.6 | 25.7 | > 1e+06 | – | CCNC(=O)c1ccc(Oc2cc(Br)c(CC(=O)O)cc2OC)c(NS(=O)(=O)c2ccc(F)cc2F)c1 [reference compound] | –
